In US7041683B2 (Wyeth, priority 2001, dated 2006):
Counter-ions that a name gives are not always drawn. Like-named read-outs stand apart in the source and are kept apart here.

What was measured:
[1] = molecular target: T1, cloned human 5-HT1A receptors (Homo sapiens, UniProt P08908); test: 35S-GTPγS binding assay, antagonist activity at 5-HT1A receptors; assay type: biochemical; set-up: 5-HT1A Function Imax (maximum inhibitory effect): unit not given here
T1 construct: expressed in transfected cells
T1 sequence (P08908 1-422): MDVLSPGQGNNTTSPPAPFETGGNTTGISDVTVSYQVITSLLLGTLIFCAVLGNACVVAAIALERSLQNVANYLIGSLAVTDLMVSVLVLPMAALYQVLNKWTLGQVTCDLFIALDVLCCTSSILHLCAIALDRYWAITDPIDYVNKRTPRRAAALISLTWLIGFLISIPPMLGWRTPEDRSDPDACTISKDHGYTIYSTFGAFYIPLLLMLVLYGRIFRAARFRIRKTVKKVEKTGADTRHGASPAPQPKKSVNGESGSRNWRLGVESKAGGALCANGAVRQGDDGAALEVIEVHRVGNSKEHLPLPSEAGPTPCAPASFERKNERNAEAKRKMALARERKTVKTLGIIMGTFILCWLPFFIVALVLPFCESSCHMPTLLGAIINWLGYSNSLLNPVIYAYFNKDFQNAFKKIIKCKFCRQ
Experimental: Antagonist activity at 5-HT1A receptors was established by using a ^35S-GTPγS binding assay similar to that used by Lazareno and Birdsall (Br. J. Pharmacol. 109: 1120, 1993), in which the test compound's ability to affect the binding of ^35S-GTPγS to membranes containing cloned human 5-HT1A receptors was determined. Agonists produce an increase in binding whereas antagonists produce no increase but rather reverse the effects of the standard agonist 8-OHDPAT. The test compound's maximum inhibitory effect is represented as the Imax, while its potency is defined by the IC50.

human 5-HT1A receptors = molecular target: T2, human 5-HT1A receptors (Homo sapiens, UniProt P08908); test: [3H] 8-OHDPAT displacement from 5-HT1A receptor in stably transfected CHO cells; assay type: binding
T2 construct: expressed in transfected cells; host or cells: CHO cells
T2 sequence (P08908 1-422): T1 sequence (P08908 1-422)
Excerpt: High affinity for the serotonin 5-HT1A receptor was established by testing the claimed compound's ability to displace [^3H] 8-OHDPAT (dipropylaminotetralin) from the 5-HT1A serotonin receptor following a modification of the procedure of Hall et al., J. Neurochem. 44, 1685 (1985) which utilizes CHO cells stably transfected with human 5-HT1A receptors.

serotonin transporter = molecular target: T3, serotonin transporter (Rattus norvegicus, UniProt P31652); test: 3H-paroxetine displacement from male rat frontal cortical membranes (serotonin transporter affinity); assay type: binding
T3 construct: displace ^3H-paroxetine from male rat frontal cortical membranes; from tissue; host or cells: male rat frontal cortex membranes
T3 sequence (P31652 whole entry): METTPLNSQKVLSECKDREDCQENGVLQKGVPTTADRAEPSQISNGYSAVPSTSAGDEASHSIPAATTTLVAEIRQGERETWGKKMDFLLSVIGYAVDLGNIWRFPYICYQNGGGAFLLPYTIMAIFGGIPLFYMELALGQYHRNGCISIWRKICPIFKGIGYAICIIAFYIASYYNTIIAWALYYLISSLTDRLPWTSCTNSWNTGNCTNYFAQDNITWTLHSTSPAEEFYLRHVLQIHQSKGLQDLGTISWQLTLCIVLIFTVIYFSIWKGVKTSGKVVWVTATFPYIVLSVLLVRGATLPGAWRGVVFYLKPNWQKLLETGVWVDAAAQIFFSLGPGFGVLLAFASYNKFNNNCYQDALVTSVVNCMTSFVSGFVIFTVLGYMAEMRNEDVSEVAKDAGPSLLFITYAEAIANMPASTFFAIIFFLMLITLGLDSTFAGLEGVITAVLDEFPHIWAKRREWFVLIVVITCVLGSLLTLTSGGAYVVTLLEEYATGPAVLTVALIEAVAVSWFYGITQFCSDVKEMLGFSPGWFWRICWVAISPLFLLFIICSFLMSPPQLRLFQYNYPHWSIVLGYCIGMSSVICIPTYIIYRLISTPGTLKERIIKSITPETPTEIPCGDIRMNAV

[2] = 35S-GTPγS binding, reversal of the effects of the standard agonist 8-OHDPAT
[3] = 35S-GTPγS binding, reversal of the effects of the standard agonist 8-OHDPAT, read-out: 5-HT1A Function IC50

Question: Which melting point does the source give for COc1cccc2c1OC(CN1CC=C(c3c[nH]c4ccc(C#N)cc34)CC1)CO2 (centres unmarked) (as salt: hydrochloride) (hydrate or solvate) [Example 7, 3-[1-(8-Methoxy-2,3-dihydro-benzo[1,4]dioxin-2-ylmethyl)-1,2,3,6-tetrahydro-pyridin-4-yl]-1H-indole-5-carbonitrile] here?
Answer: The melting point was 235 to 238 °C.

Question: With COc1ccc2[nH]cc(C3=CCN(CC4COc5ccccc5O4)CC3)c2c1 (centres unmarked) (as salt: oxalate) [Example 1, 5-Methoxy-3-[4-[1,2,3,6-tetrahydro-1-[2-(2,3-dihydro[1,4]benzodioxinyl)]methyl]pyridinyl]indole] as the compound, how does the melting point read?
Answer: Its melting point is 120 °C (dec.).

Question: For Fc1ccc2[nH]cc(C3=CCN(CC4COc5ccccc5O4)CC3)c2c1 (centres unmarked) (as salt: oxalate) [Example 2, 5-Fluoro-3-[4-[1,2,3,6-tetrahydro-1-[2-(2,3-dihydro[1,4]benzodioxinyl)]methyl]pyridinyl]indole], which melting point is on record?
Answer: The melting point was 145 °C (dec.).

Question: For COc1cccc2c1O[C@@H](CN1CC=C(c3c[nH]c4ccc(F)cc34)CC1)CO2 (as salt: oxalate) [Example 14, 5-Fluoro-3-[1-(8-methoxy-2,3-dihydro-benzo[1,4]dioxin-2-ylmethyl)-1,2,3,6-tetrahydro-pyradin-4-yl]-1H-indole], which melting point is on record?
Answer: The melting point was 154 to 156 °C.

Question: Which melting point does the source give for COc1cccc2c1OC(CN1CC=C(c3c[nH]c4ccccc34)CC1)CO2 (centres unmarked) (hydrate or solvate) [Example 5, 3-[1-(8-Methoxy-2,3-dihydro-benzo[1,4]dioxin-2-ylmethyl)-1,2,3,6-tetrahydro-pyridin-4-yl]-1H-indole] here?
Answer: The melting point was 203 to 205 °C.

Question: With Nc1ccc2c(c1)OCC(CN1CC=C(c3c[nH]c4ccccc34)CC1)O2 (single isomer, unassigned) [Example 3, 3-[4-(1H-Indol-3-yl)-3,6-dihydro-2H-pyridin-1-ylmethyl]-2,3-dihydro-benzo[1,4]dioxin-7-ylamine] as the compound, how does the melting point read?
Answer: Its melting point is 204 to 206 °C.

Question: Which IC50 [1] does the source give for Nc1ccc2c(c1)O[C@@H](CN1CC=C(c3c[nH]c4ccccc34)CC1)CO2 (single isomer, unassigned) [Example 3] here?
Answer: Its IC50 is 0.232 µM.

Question: And the “5-HT1A Function Imax (maximum inhibitory effect)” value [1, 2]?
Answer: Its value is “(96.0)”.

Question: What about the Ki (human 5-HT1A receptors) of the same compound?
Answer: Its Ki is 0.031 µM.

Question: What about the Ki (serotonin transporter) of the same compound?
Answer: The Ki was 0.00116 µM.

Question: For COc1ccc2[nH]cc(C3=CCN(CC4COc5ccccc5O4)CC3)c2c1 (centres unmarked) [Example 1, 5-Methoxy-3-[4-[1,2,3,6-tetrahydro-1-[2-(2,3-dihydro[1,4]benzodioxinyl)]methyl]pyridinyl]indole], which Ki (human 5-HT1A receptors) is on record?
Answer: Its Ki is 0.0272 µM.

Question: Which Ki (human 5-HT1A receptors) does the source give for Fc1ccc2[nH]cc(C3=CCN(CC4COc5ccccc5O4)CC3)c2c1 (centres unmarked) [Example 2, 5-Fluoro-3-[4-[1,2,3,6-tetrahydro-1-[2-(2,3-dihydro[1,4]benzodioxinyl)]methyl]pyridinyl]indole] here?
Answer: The Ki was 0.0683 µM.

Question: What about the Ki (serotonin transporter) of the same compound?
Answer: The Ki was 0.016 µM.

Question: For Nc1ccc2c(c1)OCC(CN1CC=C(c3c[nH]c4ccccc34)CC1)O2 (centres unmarked) [Example 4, 2-[4-(1H-Indol-3-yl)-3,6-dihydro-2H-pyridin-1-ylmethyl]-2,3-dihydro-benzo[1,4]dioxin-6-ylamine], which “5-HT1A Function Imax (maximum inhibitory effect)” value [1, 2] is on record?
Answer: The value was “(90.0)”.

Question: What about the IC50 [1, 3] of the same compound?
Answer: The IC50 was 0.24 µM.

Question: What about the melting point of the same compound?
Answer: The melting point was 199 to 200 °C.

Question: What about the Ki (human 5-HT1A receptors; displacement of [3H] 8-OHDPAT, CHO cells stably transfected with human 5-HT1A receptors, read-out: 5-HT1A Receptor Affinity KI) of the same compound?
Answer: Its Ki is 0.132 µM.

Question: And the Ki (serotonin transporter)?
Answer: The Ki was 0.00203 µM.

Question: For COc1cccc2c1OC(CN1CC=C(c3c[nH]c4ccccc34)CC1)CO2 (centres unmarked) [Example 5, 3-[1-(8-Methoxy-2,3-dihydro-benzo[1,4]dioxin-2-ylmethyl)-1,2,3,6-tetrahydro-pyridin-4-yl]-1H-indole], which “5-HT1A Function Imax (maximum inhibitory effect)” value [1, 2] is on record?
Answer: Its value is “(89.3)”.

Question: And the IC50 [1, 3]?
Answer: Its IC50 is 0.0573 µM.

Question: And the Ki (human 5-HT1A receptors)?
Answer: Its Ki is 0.00285 µM.

Question: What about the Ki (serotonin transporter) of the same compound?
Answer: Its Ki is 0.00017 µM.

Question: With Nc1ccc2c(c1)OCC(CN1CC=C(c3c[nH]c4ccc(F)cc34)CC1)O2 (centres unmarked) [Example 6, 2-[4-(5-Fluoro-1H-indol-3-yl)-3,6-dihydro-2H-pyridin-1-ylmethyl]-2,3-dihydro-benzo[1,4]dioxin-6-ylamine] as the compound, how does the “5-HT1A Function Imax (maximum inhibitory effect)” value [1, 2] read?
Answer: Its value is “(96.7)”.

Question: What about the IC50 [1, 3] of the same compound?
Answer: Its IC50 is 0.411 µM.

Question: And the melting point?
Answer: The melting point was 172 to 174 °C.

Question: And the Ki (human 5-HT1A receptors)?
Answer: Its Ki is 0.0467 µM.

Question: And the Ki (serotonin transporter)?
Answer: The Ki was 0.00034 µM.

Question: Which “5-HT1A Function Imax (maximum inhibitory effect)” value [1, 2] does the source give for COc1cccc2c1OC(CN1CC=C(c3c[nH]c4ccc(C#N)cc34)CC1)CO2 (centres unmarked) [Example 7, 3-[1-(8-Methoxy-2,3-dihydro-benzo[1,4]dioxin-2-ylmethyl)-1,2,3,6-tetrahydro-pyridin-4-yl]-1H-indole-5-carbonitrile] here?
Answer: The value was “(100)”.

Question: And the IC50 [1, 3]?
Answer: The IC50 was 0.0825 µM.

Question: What about the Ki (human 5-HT1A receptors) of the same compound?
Answer: Its Ki is 0.00795 µM.

Question: What about the Ki (serotonin transporter) of the same compound?
Answer: The Ki was 0.00104 µM.

Question: Which results are given for COc1cccc2c1O[C@@H](CN1CC=C(c3c[nH]c4ncccc34)CC1)CO2 [Example 8, 3-[1-(8-Methoxy-2,3-dihydro-benzo[1,4]dioxin-2-ylmethyl)-1,2,3,6-tetrahydro-pyridin-4-yl]-1H-pyrrole[2,3-b]pyridine]?
Answer: 5-HT1A Function Imax (maximum inhibitory effect) [1, 2]: (94.0); IC50 [1, 3]: 0.026 µM; melting point: 207 to 210 °C; Ki (human 5-HT1A receptors): 0.0043 µM; Ki (serotonin transporter): 0.039 µM

Question: With COc1cccc2c1OC(CN1CC=C(c3c[nH]c4cc(F)ccc34)CC1)CO2 (centres unmarked) [Example 9, 6-Fluoro-3-[1-(8-methoxy-2,3-dihydro-1,4-benzodioxin-2-ylmethyl)-1,2,3,6-tetrahydro-pyridin-4-yl]-1H-indole] as the compound, how does the “5-HT1A Function Imax (maximum inhibitory effect)” value [1, 2] read?
Answer: The value was “(80.0)”.

Question: What about the IC50 [1, 3] of the same compound?
Answer: The IC50 was 0.272 µM.

Question: And the melting point?
Answer: The melting point was 184 to 185 °C.

Question: What about the Ki (human 5-HT1A receptors) of the same compound?
Answer: The Ki was 0.00488 µM.

Question: What about the Ki (serotonin transporter) of the same compound?
Answer: The Ki was 0.0006 µM.

Question: Which “5-HT1A Function Imax (maximum inhibitory effect)” value [1, 2] does the source give for NC(=O)c1cccc2c1OC(CN1CC=C(c3c[nH]c4ccccc34)CC1)CO2 (centres unmarked) [Example 10, 3-[4-(1H-Indol-3-yl)-3,6-dihydro-2H-pyridin-1-ylmethyl]-2,3-dihydro-benzo[1,4]dioxine-5-carboxylic Acid Amide] here?
Answer: The value was “(61.0)”.

Question: What about the IC50 [1, 3] of the same compound?
Answer: The IC50 was 1.28 µM.

Question: And the melting point?
Answer: Its melting point is 175 to 178 °C.

Question: What about the Ki (human 5-HT1A receptors) of the same compound?
Answer: The Ki was 0.0646 µM.

Question: And the Ki (serotonin transporter)?
Answer: Its Ki is 0.00496 µM.

Question: For NC(=O)c1cccc2c1OC(CN1CC=C(c3c[nH]c4ccc(F)cc34)CC1)CO2 (centres unmarked) [Example 11, 3-[4-(5-Fluoro-1H-indol-3-yl)-3,6-dihydro-2H-pyridin-1-ylmethyl]-2,3-dihydro-benzo[1,4]dioxine-5-carboxylic Acid Amide], which “5-HT1A Function Imax (maximum inhibitory effect)” value [1, 2] is on record?
Answer: The value was “(60.0)”.

Question: And the IC50 [1, 3]?
Answer: Its IC50 is 0.736 µM.

Question: What about the melting point of the same compound?
Answer: The melting point was 195 to 197 °C.

Question: And the Ki (human 5-HT1A receptors)?
Answer: The Ki was 0.0706 µM.

Question: And the Ki (serotonin transporter)?
Answer: The Ki was 0.00313 µM.

Question: For Fc1cccc2c1OC(CN1CC=C(c3c[nH]c4ccccc34)CC1)CO2 (centres unmarked) [Example 12, 3-(1-{[8-Fluoro-2,3-dihydro-1,4-benzodioxin-2-yl]methyl}-1,2,3,6-tetrahydropyridin-4-yl)-1H-indole], which “5-HT1A Function Imax (maximum inhibitory effect)” value [1, 2] is on record?
Answer: Its value is “(76.0)”.

Question: What about the IC50 [1, 3] of the same compound?
Answer: Its IC50 is 0.521 µM.

Question: And the melting point?
Answer: Its melting point is 174 to 177 °C.

Question: What about the Ki (human 5-HT1A receptors) of the same compound?
Answer: Its Ki is 0.0355 µM.

Question: What about the Ki (serotonin transporter) of the same compound?
Answer: Its Ki is 0.049 µM.

Question: For COc1ccc2c(c1)OC(CN1CC=C(c3c[nH]c4ccccc34)CC1)CO2 (centres unmarked) [Example 13, 3-(1-{[7-Methoxy-2,3-dihydro-1,4-benzodioxin-2-yl]methyl}-1,2,3,6-tetrahydropyridin-4-yl)-1H-indole], which “5-HT1A Function Imax (maximum inhibitory effect)” value [1, 2] is on record?
Answer: The value was “(100)”.

Question: And the IC50 [1, 3]?
Answer: Its IC50 is 0.522 µM.

Question: What about the melting point of the same compound?
Answer: The melting point was 166 to 168 °C.

Question: And the Ki (human 5-HT1A receptors)?
Answer: The Ki was 0.0173 µM.

Question: What about the Ki (serotonin transporter) of the same compound?
Answer: Its Ki is 0.04 µM.

Question: With COc1cccc2c1O[C@@H](CN1CC=C(c3c[nH]c4ccc(F)cc34)CC1)CO2 [Example 14, 5-Fluoro-3-[1-(8-methoxy-2,3-dihydro-benzo[1,4]dioxin-2-ylmethyl)-1,2,3,6-tetrahydro-pyradin-4-yl]-1H-indole] as the compound, how does the “5-HT1A Function Imax (maximum inhibitory effect)” value [1, 2] read?
Answer: Its value is “(100)”.

Question: And the IC50 [1, 3]?
Answer: Its IC50 is 0.07 µM.

Question: What about the Ki (human 5-HT1A receptors) of the same compound?
Answer: The Ki was 0.00857 µM.

Question: And the Ki (serotonin transporter)?
Answer: Its Ki is 0.00179 µM.
